pIC50: −log10 of the molar value.
Molecular target: T1, HDAC6 (Homo sapiens, UniProt Q9UBN7)
T1 sequence (Q9UBN7 1-1215): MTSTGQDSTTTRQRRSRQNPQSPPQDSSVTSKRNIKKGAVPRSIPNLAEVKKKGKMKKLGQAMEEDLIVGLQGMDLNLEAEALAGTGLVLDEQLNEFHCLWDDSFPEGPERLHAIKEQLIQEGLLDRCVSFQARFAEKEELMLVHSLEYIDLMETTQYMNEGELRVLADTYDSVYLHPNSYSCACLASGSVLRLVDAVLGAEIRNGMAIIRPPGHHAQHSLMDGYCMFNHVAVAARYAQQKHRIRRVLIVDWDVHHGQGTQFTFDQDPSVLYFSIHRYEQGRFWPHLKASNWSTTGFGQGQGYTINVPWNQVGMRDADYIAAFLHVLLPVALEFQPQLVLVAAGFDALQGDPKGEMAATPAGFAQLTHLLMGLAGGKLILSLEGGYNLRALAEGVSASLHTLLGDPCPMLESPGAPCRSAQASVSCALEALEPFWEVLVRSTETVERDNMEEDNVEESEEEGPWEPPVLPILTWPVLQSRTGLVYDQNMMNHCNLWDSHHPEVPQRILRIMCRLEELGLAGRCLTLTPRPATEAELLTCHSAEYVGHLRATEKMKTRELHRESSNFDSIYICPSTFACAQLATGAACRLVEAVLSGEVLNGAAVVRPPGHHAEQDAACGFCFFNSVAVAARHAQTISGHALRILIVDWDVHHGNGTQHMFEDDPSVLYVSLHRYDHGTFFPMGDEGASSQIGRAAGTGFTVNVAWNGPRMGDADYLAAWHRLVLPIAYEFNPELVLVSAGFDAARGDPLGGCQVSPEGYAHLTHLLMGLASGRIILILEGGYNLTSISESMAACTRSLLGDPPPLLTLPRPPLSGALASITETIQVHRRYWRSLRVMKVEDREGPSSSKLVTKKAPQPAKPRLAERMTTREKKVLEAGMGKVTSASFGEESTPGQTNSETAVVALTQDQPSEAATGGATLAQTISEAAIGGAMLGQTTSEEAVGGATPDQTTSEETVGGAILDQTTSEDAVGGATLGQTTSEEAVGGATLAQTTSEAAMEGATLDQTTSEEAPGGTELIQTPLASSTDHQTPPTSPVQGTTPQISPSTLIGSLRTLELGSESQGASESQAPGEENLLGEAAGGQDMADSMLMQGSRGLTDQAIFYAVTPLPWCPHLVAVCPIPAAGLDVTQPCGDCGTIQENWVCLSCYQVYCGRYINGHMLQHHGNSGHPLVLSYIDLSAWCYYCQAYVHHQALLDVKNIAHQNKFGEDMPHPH
Assay: In vitro histone deacetylase assay: enzymatic HDAC6 electrophoretic mobility shift assay
Format: biochemical
Settings: full length human recombinant HDAC6, 1 nM enzyme, 2 μM peptide substrate RHKK(Ac)-NH2, 25° C.; read-out: Inhibitory Concentration (IC50) Values for Representative Compounds against HDAC6, Activity Range

SMILES | pIC50
C[C@H]1COc2cc(C(=O)NO)ccc2CN1c1ccc(C(F)(F)F)cc1 [(S)-N-hydroxy-3-methyl-4-(4-(trifluoromethyl)phenyl)-2,3,4,5-tetrahydrobenzo[f][1,4]oxazepine-8-carboxamide] | 6.30 to 7.00
C[C@H]1COc2cc(C(=O)NO)ccc2CN1C(=O)N1CCN(C)CC1 [(S)-N-hydroxy-3-methyl-4-(4-methylpiperazine-1-carbonyl)-2,3,4,5-tetrahydrobenzo[f][1,4]oxazepine-8-carboxamide] | 6.30 to 7.00
C[C@H]1COc2cc(C(=O)NO)ccc2CN1S(C)(=O)=O [(S)-N-hydroxy-3-methyl-4-(methylsulfonyl)-2,3,4,5-tetrahydrobenzo[f][1,4]oxazepine-8-carboxamide] | ≥ 7.00
C[C@H]1COc2cc(C(=O)NO)ccc2CN1C(=O)N1CCOCC1 [(S)-N-hydroxy-3-methyl-4-(morpholine-4-carbonyl)-2,3,4,5-tetrahydrobenzo[f][1,4]oxazepine-8-carboxamide] | ≥ 7.00
Cc1ccccc1N1Cc2ccc(C(=O)NO)cc2OC[C@@H]1C [(S)-N-hydroxy-3-methyl-4-(o-tolyl)-2,3,4,5-tetrahydrobenzo[f][1,4]oxazepine-8-carboxamide] | ≥ 7.00
C[C@H]1COc2cc(C(=O)NO)ccc2CN1C1COC1 [(S)-N-hydroxy-3-methyl-4-(oxetan-3-yl)-2,3,4,5-tetrahydrobenzo[f][1,4]oxazepine-8-carboxamide] | < 6.30
C[C@H]1COc2cc(C(=O)NO)ccc2CN1CC1COC1 [(S)-N-hydroxy-3-methyl-4-(oxetan-3-ylmethyl)-2,3,4,5-tetrahydrobenzo[f][1,4]oxazepine-8-carboxamide] | ≥ 7.00
C[C@H]1COc2cc(C(=O)NO)ccc2CN1C(=O)N1CCCCC1 [(S)-N-hydroxy-3-methyl-4-(piperidine-1-carbonyl)-2,3,4,5-tetrahydrobenzo[f][1,4]oxazepine-8-carboxamide] | ≥ 7.00
C[C@H]1COc2cc(C(=O)NO)ccc2CN1c1ccccn1 [(S)-N-hydroxy-3-methyl-4-(pyridin-2-yl)-2,3,4,5-tetrahydrobenzo[f][1,4]oxazepine-8-carboxamide] | ≥ 7.00
C[C@H]1COc2cc(C(=O)NO)ccc2CN1c1cccnc1 [(S)-N-hydroxy-3-methyl-4-(pyridin-3-yl)-2,3,4,5-tetrahydrobenzo[f][1,4]oxazepine-8-carboxamide] | ≥ 7.00
C[C@H]1COc2cc(C(=O)NO)ccc2CN1c1ccncc1 [(S)-N-hydroxy-3-methyl-4-(pyridin-4-yl)-2,3,4,5-tetrahydrobenzo[f][1,4]oxazepine-8-carboxamide] | 6.30 to 7.00
C[C@H]1COc2cc(C(=O)NO)ccc2CN1C(=O)N1CCCC1 [(S)-N-hydroxy-3-methyl-4-(pyrrolidine-1-carbonyl)-2,3,4,5-tetrahydrobenzo[f][1,4]oxazepine-8-carboxamide] | ≥ 7.00
COCCN1Cc2ccc(C(=O)NO)cc2OC[C@@H]1C [(S)-N-hydroxy-4-(2-methoxyethyl)-3-methyl-2,3,4,5-tetrahydrobenzo[f][1,4]oxazepine-8-carboxamide] | ≥ 7.00
COc1ccccc1N1Cc2ccc(C(=O)NO)cc2OC[C@@H]1C [(S)-N-hydroxy-4-(2-methoxyphenyl)-3-methyl-2,3,4,5-tetrahydrobenzo[f][1,4]oxazepine-8-carboxamide] | ≥ 7.00
COC1CN(C(=O)N2Cc3ccc(C(=O)NO)cc3OC[C@@H]2C)C1 [(S)-N-hydroxy-4-(3-methoxyazetidine-1-carbonyl)-3-methyl-2,3,4,5-tetrahydrobenzo[f][1,4]oxazepine-8-carboxamide] | ≥ 7.00
COCCCN1Cc2ccc(C(=O)NO)cc2OC[C@@H]1C [(S)-N-hydroxy-4-(3-methoxypropyl)-3-methyl-2,3,4,5-tetrahydrobenzo[f][1,4]oxazepine-8-carboxamide] | 6.30 to 7.00
COC[C@H]1COc2cc(C(=O)NO)ccc2CN1Cc1ccc(OC)cc1 [(S)-N-hydroxy-4-(4-methoxybenzyl)-3-(methoxymethyl)-2,3,4,5-tetrahydrobenzo[f][1,4]oxazepine-8-carboxamide] | ≥ 7.00
COc1ccc(CN2CCOc3cc(C(=O)NO)ccc3[C@@H]2C)cc1 [(S)-N-hydroxy-4-(4-methoxybenzyl)-5-methyl-2,3,4,5-tetrahydrobenzo[f][1,4]oxazepine-8-carboxamide] | 6.30 to 7.00

SMILES | pIC50
COC1CCN(C(=O)N2Cc3ccc(C(=O)NO)cc3OC[C@@H]2C)CC1 [(S)-N-hydroxy-4-(4-methoxypiperidine-1-carbonyl)-3-methyl-2,3,4,5-tetrahydrobenzo[f][1,4]oxazepine-8-carboxamide] | ≥ 7.00
COCCS(=O)(=O)N1Cc2ccc(C(=O)NO)cc2OC[C@@H]1C [(S)-N-hydroxy-4-((2-methoxyethyl)sulfonyl)-3-methyl-2,3,4,5-tetrahydrobenzo[f][1,4]oxazepine-8-carboxamide] | 6.30 to 7.00
C[C@H]1COc2cc(C(=O)NO)ccc2CN1C(=O)N1Cc2ccccc2C1 [(S)-N-hydroxy-4-(isoindoline-2-carbonyl)-3-methyl-2,3,4,5-tetrahydrobenzo[f][1,4]oxazepine-8-carboxamide] | ≥ 7.00
CC(C)CN1Cc2ccc(C(=O)NO)cc2OC[C@@H]1C [(S)-N-hydroxy-4-isobutyl-3-methyl-2,3,4,5-tetrahydrobenzo[f][1,4]oxazepine-8-carboxamide] | ≥ 7.00
CC(C)N1Cc2ccc(C(=O)NO)cc2OC[C@@H]1C [(S)-N-hydroxy-4-isopropyl-3-methyl-2,3,4,5-tetrahydrobenzo[f][1,4]oxazepine-8-carboxamide] | < 6.30
C[C@H]1CN(C)Cc2ccc(C(=O)NO)cc2O1 [(S)—N-hydroxy-2,4-dimethyl-2,3,4,5-tetrahydrobenzo[f][1,4]oxazepine-8-carboxamide] | < 6.30
C[C@H]1CNCc2ccc(C(=O)NO)cc2O1 [(S)—N-hydroxy-2-methyl-2,3,4,5-tetrahydrobenzo[f][1,4]oxazepine-8-carboxamide] | 6.30 to 7.00
C[C@H]1COc2cc(C(=O)NO)ccc2CN1C [(S)—N-hydroxy-3,4-dimethyl-2,3,4,5-tetrahydrobenzo[f][1,4]oxazepine-8-carboxamide] | 6.30 to 7.00
C[C@H]1COc2cc(C(=O)NO)ccc2CN1 [(S)—N-hydroxy-3-methyl-2,3,4,5-tetrahydrobenzo[f][1,4]oxazepine-8-carboxamide] | 6.30 to 7.00
O=C(NO)c1ccc2c(c1)OCCNC2 [N-hydroxy-2,3,4,5-tetrahydrobenzo[f][1,4]oxazepine-8-carboxamide] | 6.30 to 7.00
O=C1CN(C(=O)N2CCCCC2)Cc2cc(C(=O)NO)ccc2N1 [N-hydroxy-2-oxo-4-(piperidine-1-carbonyl)-2,3,4,5-tetrahydro-1H-benzo[e][1,4]diazepine-7-carboxamide] | 6.30 to 7.00
O=C1CN(c2ccccc2)Cc2cc(C(=O)NO)ccc2N1 [N-hydroxy-2-oxo-4-phenyl-2,3,4,5-tetrahydro-1H-benzo[e][1,4]diazepine-7-carboxamide] | < 6.30
CN1Cc2ccc(C(=O)NO)cc2OCC1(C)C [N-hydroxy-3,3,4-trimethyl-2,3,4,5-tetrahydrobenzo[f][1,4]oxazepine-8-carboxamide] | ≥ 7.00
CC1(C)COc2cc(C(=O)NO)ccc2CN1 [N-hydroxy-3,3-dimethyl-2,3,4,5-tetrahydrobenzo[f][1,4]oxazepine-8-carboxamide] | ≥ 7.00
COCCN1CCOc2cc(C(=O)NO)ccc2C1 [N-hydroxy-4-(2-methoxyethyl)-2,3,4,5-tetrahydrobenzo[f][1,4]oxazepine-8-carboxamide] | 6.30 to 7.00
CC1CCCCN1C(=O)N1CCOc2cc(C(=O)NO)ccc2C1 (stereo not drawn) [N-hydroxy-4-(2-methylpiperidine-1-carbonyl)-2,3,4,5-tetrahydrobenzo[f][1,4]oxazepine-8-carboxamide] | ≥ 7.00
CC1COCCN1C(=O)N1CCOc2cc(C(=O)NO)ccc2C1 (stereo not drawn) [N-hydroxy-4-(3-methylmorpholine-4-carbonyl)-2,3,4,5-tetrahydrobenzo[f][1,4]oxazepine-8-carboxamide] | 6.30 to 7.00
COc1ccc(CN2Cc3ccc(C(=O)NO)cc3OCC23CC3)cc1 [N-hydroxy-4-(4-methoxybenzyl)-4,5-dihydro-2H-spiro[benzo[f][1,4]oxazepine-3,1′-cyclopropane]-8-carboxamide] | ≥ 7.00

Source: patent publication US11279681B2, “3-alkyl bicyclic [4,5,0] hydroxamic acids as HDAC inhibitors” (Valo Health, Inc., priority 2015, dated 2022)
